melting point	Structure (SMILES)
286 to 288 °C	N#Cc1cnc2c(c1Nc1cccc(Br)c1)C=C1N=CN=C1C2
96 to 100 °C	CCOC(=O)C(C(=O)OCC)c1cccc(C(=O)c2ccc(Cl)cc2)c1[N+](=O)[O-]
210 to 212 °C	C=CCOc1ccccc1-c1ccc(C(N)=O)c(=O)[nH]1
148 to 149 °C	COC(=O)c1ccc2cc(OCc3ccccc3)ccc2c1
92 to 98 °C	CC(=O)Nc1ccc(OCCCCO[N+](=O)[O-])cc1
186 to 187 °C	C[C@@H](NC(=O)c1nsc(-c2ccc(Cl)cc2)n1)[C@](O)(Cn1cncn1)c1ccc(F)cc1F
206 to 208 °C	COCc1cn2c(C)c(C)nc2c2c1C(=O)[C@H](O)[C@@H](c1ccccc1)N2
183 to 188 °C	COc1ccc(C(CC(N)=O)N2C(=O)c3ccccc3C2=O)cc1 (configuration not stated)
108 °C	O=[N+]([O-])c1cccc2c(OS(=O)(=O)C(F)(F)F)ccnc12
130 to 131 °C	O=Cc1nccn1Cc1cn(-c2ccc(Cl)c(Cl)c2)cn1
147 to 148 °C	CN(C)c1ccc(/C=C/c2cccc(F)c2)cc1
127 to 130 °C	O=[N+]([O-])c1ccc2c(c1)CCN(Cc1ccc3cc([N+](=O)[O-])ccc3n1)CC2
251 °C	Cc1cc(C(=O)Nc2cccc(Sc3ccc4nc(NC(=O)C5CC5)cn4n3)c2)n(C)n1
207 to 210 °C	O=C1c2ccc(Nc3ccc(Cl)cc3)cc2C(=O)N1Cc1cccnc1
222 to 233 °C	Cc1cnc2c(NC(=O)c3c(Cl)cccc3Cl)ccc(Cl)c2c1Cl
144 to 146 °C	CCn1cc(C(=O)O)c(=O)c2cc(F)c(N3CCNC(COC(C)C)C3)cc21 (configuration not stated)
169 to 170 °C	CC(C)(C)OC(=O)N1CCC(c2noc3c(O)c(F)ccc23)CC1
128 to 130 °C	O=c1c(Cl)c(S(=O)C2CCCCC2)cnn1-c1ccccc1 (configuration not stated)
105 to 115 °C	CCCn1cc(Cc2ccc(C(=O)O)cc2OC)c2cc(CC3CCCN(C)C3=O)ccc21 (configuration not stated)
178 to 182 °C	Oc1ccc(-c2ccc(C(F)(F)F)cc2)cn1
151 to 153 °C	COc1ccc(OCC(O)CN2CCC3(CC2)CNC(=O)O3)cc1 (configuration not stated)
138 °C	CCCCCCCCCCCCCCCCS(=O)(=O)NCCc1ccc(OCC(=O)O)cc1
222 °C	O=C1Nc2ccc(F)c(F)c2[C@@](C#CC2CC2)(C(F)(F)F)O[C@H]1C1CC1 (relative stereo)

melting point	Structure (SMILES)
88.5 °C	O=C(C(Cl)c1ccccc1)N1CCCC1 (configuration not stated)
154 °C	CCCCOCCOc1ccc(-c2ccc3c(c2)C=C(C(=O)Nc2ccc(/C(Cc4nccn4CCC)=N/O)cc2)CCN3CC(C)C)cc1
325 to 326 °C	COc1ccc(OC)c(Cc2c(C)c3c(N)nc(N)nc3[nH]c2=O)c1
177 °C	Cc1csc(NC(=O)C2=C(O)c3ccc4ccccc4c3S(=O)(=O)N2C)n1
71 to 73 °C	COc1ccc(CCCOc2c(C)cc(-c3noc(C)n3)cc2C)cn1
188 °C	Cn1c(CC(=O)O)ccc1C(=O)c1ccc(Br)cc1
120 to 122 °C	CC1CC(=O)NN=C1c1ccc(C(=O)OC2CCCC2)cc1 (configuration not stated)
154 to 156 °C	COc1ccc(C2(C(=O)O)CCC(=O)CC2)cc1
135 to 138 °C	CN(C)C1=C(Cl)C(=O)NC1=Nc1ccccc1
153 to 154 °C	COc1ccccc1-c1c(CC(=O)O)n(C)c2ccc(Cl)cc12
141 to 148 °C	COC(=O)CC[C@H](NC(=O)c1cccc(CCC2CNc3nc(NC(=O)C(C)(C)C)nc(O)c3C2)c1)C(=O)OC (some centres not stated)
125 to 127 °C	CCN(CC)CCOc1ccc(C(=O)c2c(-c3ccccc3)oc3ccccc23)cc1
172 to 174 °C	CCCCNC(=O)c1ccc(N2CCN(c3ccncc3)CC2)cc1
170 to 171 °C	CN(C)N=Cc1cc(-n2c(=O)cc(C(F)(F)F)n(C)c2=O)ccc1Cl
> 300 °C	CC1=NN(c2cccc(C(=O)O)c2)C(=O)C1=c1[nH]c(=c2[nH]c(=C3C(=O)N(c4cccc(C(=O)O)c4)N=C3C)c3ccccc23)c2ccccc12
200 to 201 °C	NC(=O)CC(=O)c1cn2c3c(cccc13)CCC2
127 to 128 °C	Cc1ncsc1C(C)(O)c1ccco1 (configuration not stated)
140 to 145 °C	CC12CCC3c4ccc(O)cc4CC(Sc4ccc(O)cc4)C3C1CCC2O (configuration not stated)
176 to 177 °C	c1ccc2c(c1)Cn1c(cc3ccccc31)CN2
180 °C	N#Cc1ccc(S)c(C#N)c1
92.4 to 93.8 °C	CCCCc1nc(C)c(CC(=S)N2CCC2)c(=O)n1Cc1ccc(-c2ccccc2-c2nnn[nH]2)cc1
160 °C	O=C(Oc1cccc2ccccc12)n1c2c(c(=O)n(C3CCCCO3)c1=O)CCC2 (configuration not stated)
116 to 117 °C	Cc1cc(CCCOc2c(C)cc(N3COC(CO)=N3)cc2C)on1

melting point	Structure (SMILES)
181 °C	CCOC(=O)N1CC[C@H](NC(=O)c2cc([N+](=O)[O-])c(Cl)cc2OC)[C@H](OC)C1 (relative stereo)
194 to 198 °C	COc1nc(NC(=O)NS(=O)(=O)c2ccccc2C)nc(N(C)C)n1
71 to 72 °C	Cc1ccc(COC(=O)CCC2CCC(=O)N2)cc1 (configuration not stated)
87 to 90 °C	COc1cc(C(=O)N2CCC(CCN3CCC(C(=O)c4nc5ccccc5n4Cc4ccc(F)cc4)CC3)(c3ccc(Cl)c(Cl)c3)C2)cc(OC)c1OC (configuration not stated)
58 to 64 °C	ClC(Cl)(Cl)C1NCC(c2ccccc2)O1 (configuration not stated)
236 to 239 °C	Cc1cc(=O)n(-c2cc(C(=O)O)c(Cl)cc2F)c(=O)n1C
> 300 °C	Cc1cc(C(=O)Nc2ccc(C(=O)O)cc2)on1
150 to 152 °C	CCOC(=O)NNc1ccc(N(C)CC(C)O)nn1 (configuration not stated)
105 to 106 °C	CCN1N=C(c2ccc(OC)c(OC)c2)[C@@H]2CCCC[C@@H]2C1=O (relative stereo)
200 to 202 °C	CN(C)c1ncc(CN2C(=O)C3(COc4cc5c(cc43)OCO5)c3ccccc32)s1 (configuration not stated)
163 to 164 °C	CCC(CC)c1nn(-c2ncc(C(F)(F)F)cn2)cc1CCCOc1c(CC(=O)O)cccc1OC
150 °C	CC1=CC(c2ccccc2)C(c2cccs2)=NN1 (configuration not stated)
126 °C	O=C(OCC1=CCN(Cc2c[nH]c3cccnc23)CC1)c1ccccc1
172 to 173 °C	COCC(COC)Oc1cc(Oc2ccc(S(C)(=O)=O)nc2)cc2cc(C3=NCC(CC(N)=O)S3)[nH]c12 (configuration not stated)
80 to 82 °C	CC1(C)COS(=O)(=O)OC1
73 to 77 °C	CCN(C(=O)Nc1ccc(OC(F)(F)F)cc1)C1Cc2ccc(SC(C)(C)C(=O)O)cc2C1 (configuration not stated)
103 to 112 °C	CC(C)(CF)C(O)C(Oc1ccc(Cl)cc1)n1cncn1 (configuration not stated)
> 250 °C	O=C(O)c1[nH]c2cc(Cl)cc(Cl)c2c1C=C1NC(=O)N(c2ccccc2)C1=O
152 °C	Cc1c(CO)nc(-c2ccc(C(F)(F)F)cc2)n1C
130 °C	O=C(Nc1ccccc1Cl)Oc1ccc2c(c1)CCCN2Cc1ccccc1
235 to 238 °C	CCOC(=O)CCCCCOC(=O)c1c(I)c(NC(C)=O)c(I)c(NC(C)=O)c1I
250 to 251 °C	CS(=O)(=O)CCN1CCC2(CC1)CC(=O)c1cc(NS(C)(=O)=O)ccc1O2
128 °C	Oc1ccc(Cl)cc1C(O)(Cc1ccccc1)c1ccccc1 (configuration not stated)

melting point	Structure (SMILES)
193 to 194 °C	O=C(c1ccc2nonc2c1)N1Cc2cccnc2Nc2ccccc21
166 °C	CC1(C)COc2cc(Cl)c(Cl)cc2C(O)(c2cccnc2)C1 (configuration not stated)
165 to 166 °C	CN(C)c1ccc(C2(CNC(=O)Nc3c(F)cc(F)cc3CCc3cc(C(C)(C)C)c(O)c(C(C)(C)C)c3)CCCC2)cc1
188 to 190 °C	Cc1nc[nH]c1C(=O)OC(C)C
88 to 89 °C	CCC(=NO)c1ccc(OCCCCCCCc2cc(C)no2)cc1
193 to 194 °C	O=C1NC(=O)c2c1c(-c1ccccc1)cc1[nH]c3ccc(OP(=O)(OCc4ccccc4)OCc4ccccc4)cc3c21
61 to 63 °C	CC[C@@H](c1ccccc1)N(Cc1ccc(S(C)(=O)=O)cc1)S(=O)(=O)c1ccc(Cl)cc1
104 to 107 °C	CCOC(=O)[C@H](Cc1ccc(-c2c(OC)cc(COS(C)(=O)=O)cc2OC)cc1)NC(=O)c1c(F)cccc1Cl
190 to 191 °C	CC(C)(C)c1cc(-c2n[nH]c(=S)s2)cc(C(C)(C)C)c1O
124 to 125 °C	CN(CCOc1ccc(CCCN2C(=O)COC2=O)cc1F)c1ccccn1
154 to 156 °C	COC(=O)C1=C(C)Nc2ccccc2SC1c1ccccc1 (configuration not stated)
175 to 177 °C	COc1cc(NS(=O)(=O)c2ccc(Cl)cc2)c(C(=O)Cl)cc1OC
238 to 240 °C	Cc1ccc(-c2c3c(cc4ccc(O)cc24)-c2ccc(O)cc2CO3)cc1F
149 to 150 °C	CC(=O)NC1=NN(c2ccccc2)CC1C (configuration not stated)
296 to 299 °C	CCCc1n[nH]c2ccc(C(=O)O)cc12
115 to 117 °C	CCCCc1cc(-c2ccc(S(N)(=O)=O)cc2)n(-c2ccc(OC)cc2)c1
173 to 175 °C	NS(=O)(=O)c1ccc(-n2nc(C(F)(F)F)cc2-c2ccc([N+](=O)[O-])cc2)cc1
210 °C	O=C1CNC(=O)C(CCCCNC(=O)OCc2ccccc2)N1 (configuration not stated)
147 to 148 °C	COC1(c2ccc(CCc3cc(F)cc(F)c3NC(=O)C(C)(C)C)cc2)CCOCC1
80 to 83 °C	CCCc1c(OCCCOc2ccc3c(c2CCC)OC(C)(CCC(=O)O)CC3=O)ccc(C(C)=O)c1O (configuration not stated)

Structure (SMILES)	melting point
c1ccc(CCC2=NOC3(CCNCC3)C2)cc1	106 to 109 °C
O=C(N[C@H]1CN2CCC1CC2)C(Cc1ccccc1)c1ccccc1 (some centres not stated)	142 °C
Nc1ccc(CCN2CCC(Nc3nc4ccccc4n3Cc3ccc(F)cc3)CC2)cc1	195 °C
Fc1ccc2[nH]cc(CC3CCNCC3)c2c1	155 to 157 °C
CNc1nc(C)c(-c2nc3ccccc3c(=O)n2-c2ccccc2)s1	209 to 210 °C
O=Cc1cnn(Cc2ccccc2)c1-c1ccccc1	99 to 100 °C
CC(=O)OC1NC(=O)C2=C1CN=C(c1ccccc1Cl)c1cc(Cl)ccc12 (configuration not stated)	172 to 174 °C
CCC1(CC)C(=O)N(CC(O)Cc2cc(C)c(O)c(C(C)(C)C)c2)C(=O)N(CC(O)Cc2cc(C)c(O)c(C(C)(C)C)c2)C1=O (configuration not stated)	147 to 148 °C

— a melting point compilation (Tetko et al.; mined from patent text by program, amines drawn as free bases though some values may be those of a salt)
